One assay has as its system monocytes. As to the kind of experiment: Monocyte phagocytosis of RNP-ICs. Type of assay: cell-based, human. The following applies: RNase exposure or R848 priming.
Another assay has as its system ncf1 (p47 phox). As to the kind of experiment: p47 phox (ncf1) S345 phosphorylation, phosphoproteomics and Western blot. In kind it is cell-based, human. The following applies: R848 activation. As to the method: Another target of TLR7/8 stimulation was ncf1 (p47 phox). Ncf1 was phosphorylated at S345, a known target site involved in activation of the NADPH oxidase complex. […] The experiment was repeated three times; combined results were compared using paired t test (P=0.044). Neutrophils were incubated with R848 in the absence or presence of the PI3K inhibitor Ly294002 and analyzed for pS345 or total levels of p47 phox using Western Blot. The experiment was repeated four times; combined results were compared using paired t test (No stim, P=0.03; R848+LY294002, P=0.0011). […] Briefly, neutrophils were treated with inhibitors of NADPH oxidase prior to addition of R848 and analyzed for cell surface expression of FcgRIIA by flow cytometry. […] Briefly, neutrophils from healthy individuals (HV, n=18) and CGD patients (n=4) were stimulated with R848 and analyzed for FcgRIIA levels by flow cytometry. The data were analyzed using paired t test (HC, P<0.0001) and unpaired t test (HC vs CGD, P=0.0097). Neutrophils from healthy individuals (HV, n=13) and CGD patients (n=3) were activated by R848 and analyzed for CD66b expression by flow cytometry using paired t test (HC, P<0.0001; CGD, P=0.039). […] Briefly, neutrophils were activated with LPS or PAM3CSK4 in presence of DPI and analyzed for FcgRIIA levels by flow cytometry. […]
A general note: A western blot detects proteins with antibodies after separation by electrophoresis.

Experimental for monocytes: Monocytes were incubated with R848 or neutrophil supernatant prior to addition of RNP-ICs or beads. Phagocytosis was determined by flow cytometry.
SLE IgG, SmRNP and heat-aggregated IgG (HAGG) were labeled with Alexa-647 according to manufacturer's protocol (Life Technologies). Neutrophils, or PBMCs, from healthy individual were stimulated with different ICs, FITC-conjugated latex beads or zymosan (100 μg/mL, Life Technologies) for 30 minutes at 37° C. and immediately analyzed for phagocytosis. […] In some experiments, R848, at a concentration of 2 μg/mL, or neutrophil supernatant, was added 30 and 90 minutes before addition of the phagocytic stimuli, respectively.
Plasmacytoid dendritic cells were identified based on their expression of BDCA-4 (Miltenyi Biotech) and monocytes based on their expression of CD14 (Biolegend). In some experiments neutrophil supernatant (generated by incubating neutrophils with R848 for 90 minutes) were added to PBMCs with or without presence of the pan-protease inhibitor (1×), and expression of FcgRs and phagocytic ability analyzed in monocytes by flow cytometry as described above.

With `CCOCc1nc2c(N)nc3ccccc3c2n1CC(C)(C)O` [R848], the “monocyte phagocytosis of RNP-ICs” value in the assay with monocytes is reported as “not affected”. For the same molecule, the “phosphorylation of ncf1 (p47 phox) at S345” value in the assay on ncf1 (p47 phox) was “phosphorylated (p47 phox) at S345”.

These data come from patent US20260133193A1, “COMPOSITIONS AND METHODS FOR TREATING INFLAMMATORY DISEASES” (University of Washington, priority 2018, published 2026).
